From patent US9079834B2, “HIV protease inhibitors” (Merck Canada Inc., priority 2010, dated 2015) come the findings set out here.

Assay [1] deals with HIV-1 replication in T-lymphoid cells. The assay can be described thus: Assay for inhibition of HIV replication (spread assay). The conditions noted are these: 10% FBS. In kind it is cell-based. As for the experimental part:
Assays for the inhibition of acute HIV infection of T-lymphoid cells were conducted in accordance with Vacca, J. P. et al., Proc. Natl. Acad. Sci. USA 91: 4096-4100 (1994).

The target in another assay is wild-type HIV-1 protease (Human immunodeficiency virus type 1 group M subtype B (isolate HXB2) (HIV-1), UniProt P04585). The assay can be described thus: Assay for inhibition of microbial expressed HIV protease. In kind it is biochemical. The conditions noted are these: wild-type HIV-1 protease enzyme. As to the method:
The inhibition of WT HIV-1 protease was studied using the reaction of the protease (expressed in Escherichia coli) with a peptide substrate as described in WO 2009/042094. The test compound was first preincubated with the enzyme in assay buffer (50 mM sodium acetate, pH 5.5, 100 mM NaCl, and 0.1% BSA) for 30 minutes at room temperature. Substrate was then added to 400 micromolar in a total volume of 80 microliters containing 10 picomolar HIV-1 protease and the reaction was incubated for 1 hour at 30° C. The reaction was quenched with the addition of 120 microliters of 10% phosphoric acid. The product formation was determined after separation of product and substrate on a ZORBAX® Eclipse XDB-C18 (Agilent Technologies, Palo Alto, Calif.) column connected to an Agilent 1100 high performance liquid chromatography system with fluorescence detection (excitation 270 nanometer and emission 330 nanometer). Alternatively, the inhibitor was preincubated with enzyme and substrate as described above, but in a total volume of 20 microliters containing 20 picomolar HIV-1 protease and the reaction was incubated for 1 hour at 30° C. The reaction was quenched with the addition of 30 microliters of 1 micromolar indinavir (indinavir was also used as an internal standard), and the product formation was determined after separation of product and substrate on a ZORBAX® Eclipse XDB-C18 column connected to an API 4000 mass spectrometer (Applied Biosystems, Carlsbad, Calif.) with multiple reaction monitoring (transitions were 644.5/428.9 and 615.4/422.2 (M1/M3) for product and indinavir respectively). The extent of inhibition of the reaction was determined from the peak area of the products. HPLC of the products, independently synthesized, provided quantitation standards and confirmation of the product composition.

Where [2] appears, read: Human immunodeficiency virus 1, T-lymphoid.

Broadly, the IC95 is the concentration at which the effect reaches the 95% level. Higher therefore signals weaker potency. As a reminder, the IC50 is the concentration that gives 50% inhibition.

Regarding `COC(=O)N[C@H](C(=O)NCC(F)CC[C@@H](CO)N(CCC(C)C)S(=O)(=O)c1ccc(N)cc1)C(c1ccccc1)c1ccccc1` (single isomer, unassigned) [Example 1-1, N-[(2R or S,5S)-5-{[(4-aminophenyl)sulfonyl](3-methylbutyl)amino}-2-fluoro-6-hydroxyhexyl]-Nα-(methoxycarbonyl)-β-phenyl-L-phenylalaninamide], the IC95 in assay [1] is 0.0428 µM. In addition, half-maximal inhibition on wild-type HIV-1 protease (IC50) was put at 0.24 nM.

`COC(=O)N[C@H](C(=O)NCC(F)CC[C@@H](CO)N(CCC(C)C)S(=O)(=O)c1ccc(N)cc1)C(c1ccccc1)c1ccccc1` (single isomer, unassigned) [Example 1-2, N-[(2R or S,5S)-5-{[(4-aminophenyl)sulfonyl](3-methylbutyl)amino}-2-fluoro-6-hydroxyhexyl]-Nα-(methoxycarbonyl)-β-phenyl-L-phenylalaninamide] registered a concentration for an effect of 95% (IC95) in assay [1] of 0.0195 µM. At wild-type HIV-1 protease, this molecule had an IC50 of 0.01 nM.

With `COC(=O)N[C@H](C(=O)NCC(F)CC[C@@H](CO)N(CCC(C)C)S(=O)(=O)c1ccc(N)cc1)C(c1ccccc1)c1ccccc1` (stereo partly drawn) [Example 1, N-[(5S)-5-{[(4-aminophenyl)sulfonyl](3-methylbutyl)amino}-2-fluoro-6-hydroxyhexyl]-Nα-(methoxycarbonyl)-β-phenyl-L-phenylalaninamide], the IC95 in assay [1] (setting [2]) turned out to be 0.0107 µM. For the same molecule, the IC50 at wild-type HIV-1 protease was determined as 0.03 nM.

`CCCCCN([C@H](CO)CCC(F)(F)CNC(=O)[C@@H](NC(=O)OC)C(c1ccccc1)c1ccccc1)S(=O)(=O)c1ccc(CO)cc1` [Example 2] came in with an IC95 in assay [1] (setting [2]) of 0.0163 µM. Half-maximal inhibition at wild-type HIV-1 protease (IC50) required 0.019 nM.

`COC(=O)N[C@H](C(=O)NCC(F)(F)CC[C@@H](CO)N(CC1CC(F)(F)C1)S(=O)(=O)c1ccc2ncsc2c1)C(c1ccccc1)c1ccccc1` [Example 4, N-[(5S)-5-{(1,3-benzothiazol-6-ylsulfonyl)[(3,3-difluorocyclobutyl)methyl]amino}-2,2-difluoro-6-hydroxyhexyl]-Nα-(methoxycarbonyl)-β-phenyl-L-phenylalaninamide] came in with an IC95 in assay [1] (setting [2]) of 0.181 µM. For the same molecule, on wild-type HIV-1 protease, the midpoint of inhibition, the IC50, lay at 0.59 nM.

Turning to `COC(=O)N[C@H](C(=O)NCC(F)(F)CC[C@@H](CO)N(Cc1cn[nH]c1)S(=O)(=O)c1ccc2ncsc2c1)C(c1ccccc1)c1ccccc1` [Example 5, N-{(5S)-5-[(1,3-benzothiazol-6-ylsulfonyl)(1H-pyrazol-4-ylmethyl)amino]-2,2-difluoro-6-hydroxyhexyl}-Nα-(methoxycarbonyl)-β-phenyl-L-phenylalaninamide], the 95% effect level in assay [1] (setting [2]) (IC95) was put at 0.907 µM. The IC50 on wild-type HIV-1 protease is 0.39 nM.

Consider `COC(=O)N[C@H](C(=O)NCC(F)(F)CC[C@@H](CO)N(C1CCC(F)(F)CC1)S(=O)(=O)c1ccc2ncsc2c1)C(c1ccccc1)c1ccccc1` [Example 6, N-{(5S)-5-[(1,3-benzothiazol-6-ylsulfonyl)(4,4-difluorocyclohexyl)amino]-2,2-difluoro-6-hydroxyhexyl)-Nα-(methoxycarbonyl)-β-phenyl-L-phenylalaninamide], for which the 95% effect concentration (IC95) in assay [1] (setting [2]) was 0.356 µM. For the same molecule, the IC50 on wild-type HIV-1 protease came out at 2.73 nM.

For the molecule `COC(=O)N[C@H](C(=O)NCC(F)(F)CC[C@@H](C(N)=O)N(CC1CC(F)(F)C1)S(=O)(=O)c1ccc2ncsc2c1)C(c1ccccc1)c1ccccc1` [Example 7, N^6-[N-(methoxycarbonyl)-β-phenyl-L-phenylalanyl]-N^2-(1,3-benzothiazol-6-ylsulfonyl)-N^2-[(3,3-difluorocyclobutyl)methyl]-5,5-difluoro-L-lysinamide], in assay [1] (setting [2]), the 95% effect concentration (IC95) is 0.201 µM. Besides, the IC50 on wild-type HIV-1 protease was 0.43 nM.

On to `COC(=O)N[C@H](C(=O)NCCC(F)(F)C[C@@H](CO)N(C(C)C)S(=O)(=O)c1ccc(N)cc1)C(c1ccccc1)c1ccccc1` [Example 8, N-[(5S)-5-{[(4-aminophenyl)sulfonyl](propan-2-yl)amino}-3,3-difluoro-6-hydroxyhexyl]-Nα-(methoxycarbonyl)-β-phenyl-L-phenylalaninamide], for which the concentration for an effect of 95% (IC95) in assay [1] (setting [2]) was found to be 0.299 µM. Further, the IC50 at wild-type HIV-1 protease stood at 6.07 nM.

In assay [1] (setting [2]), `COC(=O)N[C@H](C(=O)NCCC(F)(F)C[C@@H](CO)N(CC1CC(F)(F)C1)S(=O)(=O)c1ccc2ncsc2c1)C(c1ccccc1)c1ccccc1` [Example 9, N-[(5S)-5-{(1,3-benzothiazol-6-ylsulfonyl)[(3,3-difluorocyclobutyl)methyl]amino}-3,3-difluoro-6-hydroxyhexyl]-Nα-(methoxycarbonyl)-β-phenyl-L-phenylalaninamide] came in with an IC95 of 0.105 µM. For the same molecule, at wild-type HIV-1 protease, half-maximal inhibition (IC50) required 5.62 nM.

Take `COC(=O)N[C@H](C(=O)NCCC(F)C[C@@H](CO)N(C(C)C)S(=O)(=O)c1ccc(N)cc1)C(c1ccccc1)c1ccccc1` (stereo partly drawn) [Example 10, N-[(5S)-5-{[(4-aminophenyl)sulfonyl](propan-2-yl)amino}-3-fluoro-6-hydroxyhexyl]-Nα-(methoxycarbonyl)-β-phenyl-L-phenylalaninamide]: the concentration for an effect of 95% (IC95) in assay [1] (setting [2]) turned out to be 0.245 µM. Besides, half-maximal inhibition at wild-type HIV-1 protease (IC50) required 3.9 nM.
